Structures can show the parent of a compound that is named as a salt. Where two headings read alike, the source gives them in different places.
Columns and labels:
sGFP::ATZ [1] = experiment: LOPAC library high-content primary screen for sGFP::ATZ accumulation in transgenic animals; type: in vivo, C. elegans; settings: for Rank-score: 24 h
sGFP::ATZ [2] = experiment: Hit compound characterization: dose-response in the sGFP::ATZ HCS assay; type: in vivo, C. elegans; design: key to dose-dependent response: c: Compound demonstrated a dose-dependent response.; Compound failed to demonstrate a dose-dependent response; settings: for dose-dependent response: retest at 0-100 μM, 24 or 48 hours
Method: Imaging of animals using the ArrayScan VTI: Prior to imaging, worms were anesthetized by adding 30 μl of 0.02 M NaN3 in PBS to each well. Plates were resealed, inverted twice, and incubated for 5 minutes at room temperature. Images were acquired with the ArrayScan VTI HCS Reader fitted with a 2.5× objective and a 0.63× coupler using a 2-channel (TRITC and GFP) assay. Real-time analysis was performed using the SpotDetector BioApplication optimized to quantify fluorescent protein expression in C. elegans. Image acquisition and analysis of a 384-well plate was completed in <45 minutes. The total number of animals in the well was determined by counting the number of red heads (Pmyo-2mRFP) in the TRITC channel. Total spot area or total spot intensity was determined by quantifying the GFP-positive spots in the GFP channel. Total spot area or total spot intensity per animal was determined by dividing the values from the GFP channel by that from the TRITC channel.
Hit compound characterization: Compounds that were identified as potential hits were purchased (if available) and retested for verification. […] Compounds that produced a response in a dose-dependent manner were further tested for a time-dependent response. Compound dose-response curves were performed by dispensing 15 μl of a 4× stock solution into 384-well plates containing 15 μl of assay medium (see above). Thirty-five animals were sorted into each well bringing the volume to ˜60 μl. The final compound concentrations in each well varied from 0-100 μM. Assay plates were incubated in a 22° C. incubator for 24 or 48 hours. Each compound was tested in quadruplicate in at least 2 independent experiments.
Statistical evaluation: Statistical evaluation of data was performed using Prism® (Graphpad Software). The significance of actual and predicted data in FIGS. 12, 14 and 15 was determined using a linear regression analysis and comparing the slope and goodness-of-fit (r2) values. Statistical significance of the spot count, spot area and spot intensity values between N2 (wild-type) and various transgenic lines in FIG. 13 and dose-response in FIG. 17 was determined using an unpaired, one-tailed, Student's t-test.
Compound screen: To test the HCS protocol, a pilot drug screen was performed using the library of pharmacologically active compounds (LOPAC1280™ 1280 compounds). Tight gating parameters for total fluorescence were used to sort 35 young adult Pnhx2sGFP::ATZ animals into wells of 384-well plates containing […] of a LOPAC compound and 0.5% DMSO. Pnhx2sGFP::ATZ animals incubated with 0.5% DMSO served as untreated controls and were placed in the first-two and last-two columns of each plate. In a representative experiment, plate 1 of the LOPAC library was set-up for screening on day 1, and 3 other plates were set-up on the next day. After 24 incubation at 25° C., animals were immobilized by the addition of NaAz and placed in the ArrayScan VTI for automated imaging. To examine for systematic errors, the raw data (total spot area/animal) were depicted as a plate-well scatter plot (FIG. 17A). […] This difference reflects a wider sort-window used to collect animals on day 1 in comparison to that used on day 2. As the average values of the negative controls and that of the sample wells were similar, we combined the control and samples wells for normalization and to identify potential hits using the z-score (FIG. 17B). The ArrayScan VTI reads microtiter plates by rows, alternating from left-to-right, and then right-to-left. For some assays, we noted that the control fluorescence values would drift upwards slightly in rows towards the bottom of the plate. This drift appeared to correlate with an increase in chamber temperature during the scanning period and was minimized by cooling the chamber with a fan or shortening the read times by using 2.5× objective with a 0.6 coupler. Nonetheless, intra-plate variation was controlled for by presenting the data as a B-score (FIG. 17C). […]

[3] = among compounds that decreased ATZ accumulation, based on relative rank-scores
[4] = average of compound rankings by ascending B-score from two independent screens, 50 μM, <110 decreased, >1225 increased sGFP::ATZ inclusions
[5] = among compounds that increased ATZ accumulation, based on relative rank-scores

## 5′-3′2,3-dicarboxy-2,3-dimethyl-1,4-epoxycyclohexane [cantharidic acid]
sGFP::ATZ [1]; [3]
  Overall rank-order: 22
sGFP::ATZ [1]; [4]
  Rank-score: 79.0
sGFP::ATZ [2]; C. elegans assay
  concentration at which an anti-protein aggregate effect was achieved: 100 µM
sGFP::ATZ [2]; Caenorhabditis elegans model system
  degradation of aggregated ATZ protein: able to promote degradation of aggregated ATZ protein
sGFP::ATZ [2]
  dose-dependent response: cantharidic acid^c

## NCCc1c[nH]c2ccc(C(N)=O)cc12.O=C(O)/C=C\C(=O)O [5-carboxamidotryptamine maleate]
sGFP::ATZ [1]; [3]
  Overall rank-order: 29
sGFP::ATZ [1]; [4]
  Rank-score: 95.5

## CCN(CC)C(C)C(=O)N1c2ccccc2Sc2ccccc21.Cl (stereo not drawn) [10-(alpha-diethylaminopropionyl)-phenothiazine hydrochloride]
sGFP::ATZ [1]; [3]
  Overall rank-order: 21
sGFP::ATZ [1]; [4]
  Rank-score: 75.5

## CC(C)C[C@H]1C(=O)N2CCC[C@H]2[C@]2(O)O[C@](NC(=O)[C@@H]3C=C4c5cccc6[nH]c(Br)c(c56)C[C@H]4N(C)C3)(C(C)C)C(=O)N12.CS(=O)(=O)O [(+)-bromocriptine methanesulfonate]
sGFP::ATZ [1]; [5]
  Overall rank-order: 8
sGFP::ATZ [1]; [4]
  Rank-score: 1240.5

## CS(=O)(=O)O.Cc1c(C(=O)c2cccc3ccccc23)c2cccc3c2n1[C@H](CN1CCOCC1)CO3 [(R)-(+)-WIN 55,212-2 mesylate]
sGFP::ATZ [1]; [5]
  Overall rank-order: 14
sGFP::ATZ [1]; [4]
  Rank-score: 1231.0

## C[N+]1(C)CCc2cc3c(cc2[C@H]1[C@@H]1OC(=O)c2c1ccc1c2OCO1)OCO3.[Br-] [(−)-bicuculline methbromide, 1(S), 9(R)]
sGFP::ATZ [1]; [3]
  Overall rank-order: 26
sGFP::ATZ [1]; [4]
  Rank-score: 89.5

## CCN1CCc2nc(N)oc2CC1.Cl.Cl [B-HT 933 dihydrochloride]
sGFP::ATZ [1]; [3]
  Overall rank-order: 32
sGFP::ATZ [1]; [4]
  Rank-score: 105.5
sGFP::ATZ [2]
  dose-dependent response: B-HT 933 dihydrochloride^d

## COc1[nH]c2ccc(F)cc2c1C(=O)OCC1CCN(CCNS(C)(=O)=O)CC1.NS(=O)(=O)O [GR 125487 sulfamate salt]
sGFP::ATZ [1]; [3]
  Overall rank-order: 4
sGFP::ATZ [1]; [4]
  Rank-score: 24.0

## CN(C)c1cc2c(Nc3ccc4c(cnn4Cc4ccccc4)c3)ncnc2cn1 [GW2974]
sGFP::ATZ [1]; [5]
  Overall rank-order: 1
sGFP::ATZ [1]; [4]
  Rank-score: 1263.0

## O=S(=O)(c1cccc2cnccc12)N1CCNCC1 [HA-100]
sGFP::ATZ [1]; [3]
  Overall rank-order: 10
sGFP::ATZ [1]; [4]
  Rank-score: 52.5

## COc1cc(OC)c(C=C2C(O)=Nc3ccccc32)c(OC)c1 [IC 261]
sGFP::ATZ [1]; [5]
  Overall rank-order: 5
sGFP::ATZ [1]; [4]
  Rank-score: 1253.5

## CCCC(=O)NCCc1c2n(c3ccc(OC)cc13)Cc1ccccc1-2 [IIK7]
sGFP::ATZ [1]; [5]
  Overall rank-order: 11
sGFP::ATZ [1]; [4]
  Rank-score: 1236.5

## CCCCOC(=O)NS(=O)(=O)c1sc(CC(C)C)cc1-c1ccc(Cn2c(CC)nc3c(C)cc(C)nc32)cc1 [L-162,313]
sGFP::ATZ [1]; [5]
  Overall rank-order: 9
sGFP::ATZ [1]; [4]
  Rank-score: 1238.0

## Cc1c(CC(C)(C)C(=O)O)n(Cc2ccc(Cl)cc2)c2ccc(F)cc12 [L-655,240]
sGFP::ATZ [1]; [3]
  Overall rank-order: 3
sGFP::ATZ [1]; [4]
  Rank-score: 10.5

## O=c1[nH]c2cc(Cl)ccc2c(O)c1-c1cccc(Oc2ccccc2)c1 [L-701,324]
sGFP::ATZ [1]; [3]
  Overall rank-order: 12
sGFP::ATZ [1]; [4]
  Rank-score: 57.5

## C[C@](N)(Cc1ccc(O)c(O)c1)C(=O)O [L-alpha-methyl DOPA]
sGFP::ATZ [1]; [3]
  Overall rank-order: 18
sGFP::ATZ [1]; [4]
  Rank-score: 72.5

## COc1cccc(C(=O)NCCN2CCN(c3ccc(Cl)cc3)CC2)c1 [N-(2-[4-(4-Chlorophenyl)piperazin-1-yl]ethyl)-3-methoxybenzamide]
sGFP::ATZ [1]; [3]
  Overall rank-order: 8
sGFP::ATZ [1]; [4]
  Rank-score: 41.5

## CCCN(CCC)[C@H]1CCc2c(F)ccc(O)c2C1.Cl [S(−)-UH-301 hydrochloride]
sGFP::ATZ [1]; [3]
  Overall rank-order: 17
sGFP::ATZ [1]; [4]
  Rank-score: 65.0

## Cn1ccc2cc3c(cc21)CCN3C(=O)Nc1cccnc1 [SB 206553 hydrochloride]
sGFP::ATZ [1]; [3]
  Overall rank-order: 11
sGFP::ATZ [1]; [4]
  Rank-score: 56.0

## Cc1nc(-c2ccc(-c3ccc(C(=O)N4CCc5cc6c(cc54)C4(CCN(C)CC4)CO6)cc3)c(C)c2)no1 [SB 224289 hydrochloride]
sGFP::ATZ [1]; [5]
  Overall rank-order: 3
sGFP::ATZ [1]; [4]
  Rank-score: 1255.0

## C#C[C@]1(O)CC[C@H]2[C@@H]3CCC4=Cc5nc6nc7ccccc7n6cc5C[C@]4(C)[C@H]3CC[C@@]21C [WIN 62,577]
sGFP::ATZ [1]; [5]
  Overall rank-order: 12
sGFP::ATZ [1]; [4]
  Rank-score: 1233.5

## Cl.N[C@@H](CCl)C(=O)O [beta-chloro-L-alanine hydrochloride]
sGFP::ATZ [1]; [3]
  Overall rank-order: 16
sGFP::ATZ [1]; [4]
  Rank-score: 61.5

## CO[C@@]1(NC(=O)CSCC#N)C(=O)N2C(C(=O)O)=C(CSc3nnnn3C)CS[C@@H]21 [cefmetazole sodium]
sGFP::ATZ [1]; [3]
  Overall rank-order: 9
sGFP::ATZ [1]; [4]
  Rank-score: 51.0
sGFP::ATZ [2]
  dose-dependent response: cefmetazole sodium^d

## CC1=C(C(=O)O)N2C(=O)[C@@H](NC(=O)[C@H](N)C3=CCC=CC3)[C@H]2SC1 [cephradine]
sGFP::ATZ [1]; [3]
  Overall rank-order: 27
sGFP::ATZ [1]; [4]
  Rank-score: 90.0

## Cl.Cl.OCCN1CCN(CC/C=C2/c3ccccc3Sc3ccc(C(F)(F)F)cc32)CC1 [cis-(Z)-flupenthixol dihydrochloride]
sGFP::ATZ [1]; [3]
  Overall rank-order: 20
sGFP::ATZ [1]; [4]
  Rank-score: 74.0

## Clc1ccccc1C(c1ccccc1)(c1ccccc1)n1ccnc1 [clotrimazole]
sGFP::ATZ [1]
  Overall rank-order: 4
sGFP::ATZ [1]; 50 µM
  Rank-score: 1255.0

## CN(C)CCC=C1c2ccccc2COc2ccccc21 [doxepin hydrochloride]
sGFP::ATZ [1]
  Overall rank-order: 15
sGFP::ATZ [1]; 50 µM
  Rank-score: 61.0
sGFP::ATZ [2]
  dose-dependent response: doxepin hydrochloride^d

## Cc1cnc(C(=O)NCCc2ccc(S(=O)(=O)NC(=O)NC3CCCCC3)cc2)cn1 [glipizide]
sGFP::ATZ [1]; [5]
  Overall rank-order: 12
sGFP::ATZ [1]; [4]
  Rank-score: 1234.0
sGFP::ATZ [2]
  dose-dependent response: glipizide^d

## CN[C@@H]1C[C@@H](c2ccc(Cl)c(Cl)c2)c2ccccc21 [indatraline hydrochloride]
sGFP::ATZ [1]; [3]
  Overall rank-order: 28
sGFP::ATZ [1]; [4]
  Rank-score: 93.0

## O=C1Nc2ccccc2/C1=C1/Nc2ccccc2/C1=N\O [indirubin-3′-oxime]
sGFP::ATZ [1]; [3]
  Overall rank-order: 25
sGFP::ATZ [1]; [4]
  Rank-score: 85.0

## NCc1cc(=O)[nH]o1 [muscimol hydrobromide]
sGFP::ATZ [1]; [3]
  Overall rank-order: 5
sGFP::ATZ [1]; [4]
  Rank-score: 28.0

## NC(=Nc1ccccc1)NC(=O)c1nc(Cl)c(N)nc1N [phenamil methanesulfonate]
sGFP::ATZ [1]; [3]
  Overall rank-order: 13
sGFP::ATZ [1]; [4]
  Rank-score: 57.5
sGFP::ATZ [2]
  dose-dependent response: phenamil methanesulfonate^d

## CN1CCN(CCCN2c3ccccc3Sc3ccc(Cl)cc32)CC1 [prochlorperazine dimaleate]
sGFP::ATZ [1]; [3]
  Overall rank-order: 31
sGFP::ATZ [1]; [4]
  Rank-score: 103.5

## COc1ccc(C2CNC(=O)C2)cc1OC1CCCC1 (stereo not drawn) [rolipram]
sGFP::ATZ [1]; [3]
  Overall rank-order: 14
sGFP::ATZ [1]; [4]
  Rank-score: 58.0

## N#CC(C#N)=C(N)/C(C#N)=C/c1ccc(O)cc1 [tyrphostin AG 112]
sGFP::ATZ [1]; [3]
  Overall rank-order: 30
sGFP::ATZ [1]; [4]
  Rank-score: 98.0

— patent publication US9820990B2, “Methods of treating disorders associated with protein aggregation” (University of Pittsburgh—Of the Commonwealth System of …, priority 2009, dated 2017)
